How the values were obtained:
Format in all cases: in vivo, human
MAPT = experiment: Regression / mixed model of Toxicity Index on MAPT SNP genotype of recipient subjects; details: for Fixed effect Estimate, COL6_2 (MAPT_H1): TT=1, CC=0
From the text: (§1) The GENOMELAB SNPSTREAM™ (Beckman) was utilized to accommodate up to 92,000 genotypes per day. This automated, multiplexed system can process up to 48 SNPs in each well of an arrayed 384-well plate. The SNPSTREAM™ operates at a consistent cost per genotype or per sample, regardless of run throughput, allowing users to cost-effectively zero in on targets with low-throughput studies as well as conduct high-throughput analyses.
(§2) The SNPSTREAM™ Genotyping System features a protocol with three steps. The technology is based on single-based primer extension technology. The system's high sensitivity delivers results using as little as 2 ng of genomic DNA. SNPWARE™ reagent kits were used. The kits included ready-to-use reagents, all performed in the original PCR plate according to the manufacturer's instructions, and incorporated herein by reference in its entirety.
(§3) Multiplexed reactions were spatially resolved on a SNPWARE™ Tag Array plate. Each of the 384 wells in a plate contained 16 or 52 unique oligonucleotides of a known sequence, or tag. Each tag on the plate was complementary to one of the tags of the 12 or 48 extension primers, plus four controls to ensure accuracy. After transfer to the Tag Array plate, each SNP was hybridized to its complementary tag. SNPs were then identified by their position in the well.
(§4) The process involved a multiplex PCR followed by an annealing reaction of the oligonucleotide to the specific PCR product. Next the oligonucleotide was extended by a single base which was fluorescently labeled with a terminating NTP and finally detected by two-colored fluorescence specific for the allele.
(§5) For each SNP, the -PCRU and -PCRL primers were first used to amplify a relevant DNA fragment surrounding the target SNP site. The components per reaction were: H2O, 3.0 μl; 10× PCR Buffer II, 0.5 μl; MgCl2 (25 mM), 1.0 μl; dNTPs (2.5 mM each), 0.18 μl; PCR Primer Pool (2.5 μM each), 0.1 μl; AMPLITAQ GOLD™ (5 U/μl), 0.125 μl for a total volume of 5.0 μl per reaction.
(§6) Primer -SNPU or SNPL was then used for single-base extension reaction. The thermocycler program was as follows: Step 1: 96° C. for 3 min; Step 2: 94° C. for 20 sec; Step 3: 40° C. for 11 sec; and Step 5: return to step 2 59 times, and finally to hold at 4° C.
(§7) A preliminary data analysis focused on the relationship between the Toxicity Index and the recipient subjects' demographic/genetic information. […] Univariate linear regression analysis was conducted first to find significant covariates in predicting the Toxicity Index in one of five cycles, then multivariable analysis was used to determine the best model in fitting the data. A mixed model for repeated measurement was implemented in modeling Toxicity Index in the first five cycles, and also in all cycles. Autoregressive covariance structure was used in the mixed model. SAS and Minitab were used in the analysis.
(§8) Covariates in the analysis included recoded binary demographic variables (sex, race, site, grade, stage) and recoded binary genetic variables.
(§9) Multivariable regression analysis was used to find the best model in predicting the Toxicity Index in each of the first five cycles.
(§10) A mixed model for repeated measurements was implemented to find the best model in fitting the longitudinal data. Autoregressive covariance structure was used in the mixed model. Toxicity Indexes in the first five cycles were included in the analysis.
(§11) To model Toxicity Indexes in all 21 cycles, a mixed model was used to find the best model. For the paclitaxel, Received dose and MAPT_H14 were significant fixed effects in predicting the longitudinal Toxicity Index in all cycles.

[1] = Regression / mixed model of Toxicity Index on demographic variables and received dose
Method: as §7, §8, §9, §10, §11

CYP2C8 gene locus = experiment: Regression of Toxicity Index on CYP2C8 SNP genotype of recipient subjects
Method: The […] ™ Genotyping System features a protocol with three steps. The technology is based on single-based primer extension technology. […] SNPWARE™ reagent kits were used.
For each SNP, the -PCRU and -PCRL primers were first used to amplify a relevant DNA fragment surrounding the target SNP site. The components per reaction were: H2O, 3.0 μl; 10× PCR Buffer II, 0.5 μl; MgCl2 (25 mM), 1.0 μl; dNTPs (2.5 mM each), 0.18 μl; PCR Primer Pool (2.5 μM each), 0.1 μl; [sequence] GOLD™ (5 U/μl), 0.125 μl for a total volume of 5.0 μl per reaction.

TUBB gene locus = experiment: Regression of Toxicity Index on TUBB SNP genotype of recipient subjects
From the text: as §1, §2, §3, §4, §5, §6
Thirty (30) recipient subjects already receiving treatment with paclitaxel were screened for the presence of SNPs in the CYP2C8 and TUBB loci. Clinical data from each of the recipient subjects was used to first calculate a Toxicity Index (TI) value for each individual according to the method presented in Example 1, above. The genotype for each recipient subject with regard to the SNPs of CYP2C8 and TUBB was determined using SNPWARE™ and single base extension according to the methods of Example 4, above.
For the CYP2C8 locus, two genotypes for the rsl 058932 SNP (as shown in FIG. 1) were considered: heterozygous TC and homozygous CC. For the TUBB locus (SNP rs3132584), the heterozygous SNP CA, and the combined homozygous AA and CC variants, were considered.
as §7, §8, §9

CC(=O)O[C@@]12CO[C@@H]1C[C@H](O)[C@@]1(C)C(=O)[C@H](O)C3=C(C)[C@@H](OC(=O)[C@H](O)[C@@H](NC(=O)OC(C)(C)C)c4ccccc4)C[C@@](O)([C@@H](OC(=O)c4ccccc4)[C@H]21)C3(C)C (relative stereo) [Docetaxel, Benzenepropanoic acid, β-(((1,1-dimethylethoxy)carbonyl)amino)-α-hydroxy-, 12b-(acetyloxy)-12-(benzoyloxy)-2a,3,4,4a,5,6,9,10,11,12,12a,12b-dodecahydro-4,6,11-trihydroxy-4a,8,13,13-tetramethyl-5-oxo-7,11-methano-1H-cyclodeca(3,4)benz(1,2-b)oxet-9-yl ester trihydrate, (2aR-(2aα,4β,4aβ,6β,9(αR*,βS),11α,12α,12aα,12bα))-]
Fixed effect Estimate, COL6_2 (MAPT_H1) (MAPT; mixed model, longitudinal Toxicity Index in all cycles, Pr > |t| 0.0029): 1.1286 | Fixed effect Estimate, COL6_2 (MAPT_H1) (MAPT; mixed model, longitudinal Toxicity Index in first five cycles, Pr > |t| 0.0170): 1.1407 | Para. Est., TI4 vs MAPT_H2 (multivariable) (MAPT; multivariable analysis best model, cycle 4, rs17652121, TT = 1, CC/TC = 0, P-value 0.029): −0.900 | Para. Est., TI3 vs MAPT_H13 (multivariable) (MAPT; multivariable regression with Site, cycle 3, rs3785883, GG = 1, AG = 0, P-value 0.003): 1.408 | Para. Est., TI3 vs MAPT_H1_H21 (MAPT; univariate linear regression, cycle 3, rs754512, AA = 1, TA/TT = 0, P-value 0.010): −1.107 | Para. Est., TI3 vs MAPT_H1_H22 (MAPT; univariate linear regression, cycle 3, rs767058, AA = 1, AG/GG = 0, P-value 0.006): −1.166 | Para. Est., TI3 vs MAPT_H1_H23 (MAPT; univariate linear regression, cycle 3, rs2055794, GG = 1, AA/AG = 0, P-value 0.010): −1.107 | Para. Est., TI3 vs MAPT_H13 (MAPT; univariate linear regression, cycle 3, rs3785883, GG = 1, AG = 0, P-value 0.013): −1.245 | Para. Est., TI3 vs MAPT_H2 (MAPT; univariate linear regression, cycle 3, rs17652121, TT = 1, CC/TC = 0, P-value 0.006): −1.166 | Para. Est., TI4 vs MAPT_H1_H21 (MAPT; univariate linear regression, cycle 4, rs754512, AA = 1, TA/TT = 0, P-value 0.023): −0.953 | Para. Est., TI4 vs MAPT_H1_H22 (MAPT; univariate linear regression, cycle 4, rs767058, AA = 1, AG/GG = 0, P-value 0.029): −0.900 | Para. Est., TI4 vs MAPT_H1_H23 (MAPT; univariate linear regression, cycle 4, rs2055794, GG = 1, AA/AG = 0, P-value 0.023): −0.953 | Para. Est., TI4 vs MAPT_H2 (MAPT; univariate linear regression, cycle 4, rs17652121, TT = 1, CC/TC = 0, P-value 0.029): −0.900 | Fixed effect Estimate, Grade 2 ([1]; mixed model, longitudinal Toxicity Index in all cycles, Pr > |t| 0.0027): −0.9840 | Fixed effect Estimate, Grade 2 ([1]; mixed model, longitudinal Toxicity Index in first five cycles, Pr > |t| 0.0106): −1.0426 | Para. Est., TI3 vs Site (multivariable) ([1]; multivariable regression with MAPT_H13, cycle 3, Prostate Gland = 1, Others = 0, P-value 0.001): 2.365 | Para. Est., TI3 vs Grade ([1]; univariate linear regression, cycle 3, Poorly Dif = 1, Others = 0, P-value 0.006): −1.609 | Para. Est., TI3 vs Site ([1]; univariate linear regression, cycle 3, Prostate Gland = 1, Others = 0, P-value 0.046): 1.962

CC(=O)O[C@H]1C(=O)[C@@]2(C)[C@H]([C@H](OC(=O)c3ccccc3)[C@]3(O)C[C@H](OC(=O)[C@H](O)[C@@H](NC(=O)c4ccccc4)c4ccccc4)C(C)=C1C3(C)C)[C@]1(OC(C)=O)CO[C@@H]1C[C@@H]2O [Paclitaxel, (2aR,4S,4aS,6R,9S,11S,12S,12aR,12bS)-1,2a,3,4,4a,6,9,10,11,12,12a,12b-Dodecahydro-4,6,9,11,12,12b-hexahydroxy-4a,8,13,13-tetramethyl-7,11-methano-5H-cyclodeca(3,4)benz(1,2-b)oxet-5-one 6,12b-diacetate, 12-benzoate, 9-ester with (2R,3S)-N-benzoyl-3-phenylisoserine]
Coef, regression TI1 versus CYP2C8_2_31, TUBB2: predictor CYP2C8_2_31 (CYP2C8 gene locus; 30 recipient subjects, rs1058932, heterozygous TC vs homozygous CC, P 0.020): −1.1100 | Para. Est., TI4 vs CYP2C8_1C (multivariable) (CYP2C8 gene locus; multivariable analysis best model, cycle 4, rs17110453, AA = 1, CA = 0, P-value 0.033): −1.267 | Para. Est., TI1 vs CYP2C8_2_31 (multivariable) (CYP2C8 gene locus; multivariable regression with TUBB2, cycle 1, rs1058932, CC = 1, TC = 0, P-value 0.020): −1.110 | Para. Est., TI1 vs CYP2C8_2_31 (CYP2C8 gene locus; univariate linear regression, cycle 1, rs1058932, CC = 1, TC = 0, P-value 0.021): −1.168 | Para. Est., TI4 vs CYP2C8_1C (CYP2C8 gene locus; univariate linear regression, cycle 4, rs17110453, AA = 1, CA = 0, P-value 0.033): −1.267 | Coef, regression TI1 versus CYP2C8_2_31, TUBB2: predictor TUBB2 (TUBB gene locus; 30 recipient subjects, rs3132584, heterozygous CA vs combined AA and CC, P 0.039): −0.9135 | Para. Est., TI2 vs TUBB4 (multivariable) (TUBB gene locus; multivariable analysis best model, cycle 2, rs1061397, CC = 1, TC/TT = 0, P-value 0.037): −1.185 | Para. Est., TI1 vs TUBB2 (multivariable) (TUBB gene locus; multivariable regression with CYP2C8_2_31, cycle 1, rs3132584, CA = 1, CC/AA = 0, P-value 0.039): 0.914 | Para. Est., TI1 vs TUBB1 (TUBB gene locus; univariate linear regression, cycle 1, rs8233, AG = 1, AA/GG = 0, P-value 0.042): 0.975 | Para. Est., TI1 vs TUBB2 (TUBB gene locus; univariate linear regression, cycle 1, rs3132584, CA = 1, CC/AA = 0, P-value 0.042): 0.975 | Para. Est., TI2 vs TUBB3 (TUBB gene locus; univariate linear regression, cycle 2, rs25527, CC = 1, TC/TT = 0, P-value 0.047): −1.062 | Para. Est., TI2 vs TUBB4 (TUBB gene locus; univariate linear regression, cycle 2, rs1061397, CC = 1, TC/TT = 0, P-value 0.037): −1.185 | Fixed effect Estimate, COL18_3 (MAPT_H14) (MAPT; mixed model for repeated measurements, longitudinal Toxicity Index in first five cycles, Pr > |t| 0.0118): 0.8918 | Fixed effect Estimate, COL18_3 (MAPT_H14) (MAPT; mixed model, longitudinal Toxicity Index in all 21 cycles, Pr > |t| 0.0114): 0.6989 | Para. Est., TI3 vs MAPT_H14 (multivariable) (MAPT; multivariable analysis best model, cycle 3, rs242557, TC = 1, CC/TT = 0, P-value 0.012): 1.236 | Para. Est., TI1 vs MAPT_H14 (MAPT; univariate linear regression, cycle 1, rs242557, TC = 1, CC/TT = 0, P-value 0.016): 1.151 | Para. Est., TI3 vs MAPT_H14 (MAPT; univariate linear regression, cycle 3, rs242557, TC = 1, CC/TT = 0, P-value 0.012): 1.236 | Fixed effect Estimate, Received Dose2 ([1]; mixed model, longitudinal Toxicity Index in all 21 cycles, Pr > |t| 0.0244): 0.002363

Reference: patent US20090186361A1, “METHODS OF PREDICTING THE PHARMACEUTICAL TOXICITY OF TAXANES” (priority 2008, published 2009)
